Test results from patent US20250288518A1, “METHODS OF USING RADIPRODIL IN THE TREATMENT OF DISORDERS” (GRIN Therapeutics, Inc., priority 2023, published 2025).
Where “and” joins values, the source holds several entries; their conditions need not be identical. Identical values can stand only once. Like-named read-outs stand apart in the source and are kept apart here.

Assays:
in vivo [1] = settings: rat
audiogenic seizures = assay: audiogenic seizure model (generalized seizures); assay type: in vivo; settings: adult mice
[2] = test system: countable motor seizure (CMS); assay: phase 1B study, seizure cohort: efficacy; assay type: in vivo, human
Excerpt: Investigational Product (IP): Radiprodil. This example describes an open-label, multicenter phase 1B study being conducted to evaluate the safety, tolerability, and pharmacokinetics (PK) of multiple individually titrated doses of radiprodil and to assess the treatment effect on seizures in participants with drug-resistant seizures caused by gain-of-function (GoF) variants in the GRIN1, GRIN2A, GRIN2B, or GRIN2D genes (GRIN2B GoF variants in the US only).
(§1) This is a global, open-label, multicenter, phase 1B study to evaluate the safety, tolerability, and PK of multiple individually titrated doses of radiprodil and to assess the treatment effect on seizures and behavioral symptoms in 2 cohorts of pediatric participants: 1 cohort of participants with drug resistant seizures (with or without behavioral symptoms) (Cohort 1) and 1 cohort of participants with behavioral symptoms (but no qualifying seizures) (Cohort 2) caused by GoF variants in the GRIN1, 2A, 2B, or 2D genes (GRIN2B GoF variants only in the US). These GoF variants are gene mutations that cause an increased sensitivity of NMDA receptors to glutamate or through decreased inhibition by magnesium, altered affinity to glycine, or other relevant changes considered to increase NMDA transmission. Drug-resistant seizures are defined as a failure to respond to at least 2 antiseizure medication (ASM) therapies taken at adequate doses for an appropriate duration with assured medication adherence as determined by the treating physician. Participants with seizures to be enrolled in the first cohort should have at least 1 observable motor seizure per week and ≥4 observable motor seizures in the prospective 4-week Observation Period.
A seizure cohort of patients from 6 months to 12 years of age with known GoF variants confirmed via method described in Myers, et al., Hum Mol Genetics. 2023, 32:2857-2871, was enrolled. The patients had drug-resistant seizures with or without behavioral symptoms. Patients also had ≥1 weekly countable motor seizure (CMS) with ≥4 generalized or focal seizures during the observation period. Motor seizures included drop seizures; generalized onset seizures included tonic-clonic, tonic, bilateral clonic, atonic, myoclonic-atonic, and myoclonic-tonic-clonic seizures; and focal seizures included seizures with bilateral hyperkinetic motor features and clonic seizures.
Primary endpoints included safety, tolerability, and radiprodil plasma concentrations. Key secondary endpoints (aka, change from baseline in observable daily CMS frequency using an electronic diary (eDiary)), included ≥50%, ≥90%, and 100% reductions from baseline in seizure frequency; proportion of seizure-free days; and Clinical Global Impressions of Change (CGI-C) and Caregiver Global Impressions of Change (CaGI-C), from baseline to the end of the maintenance period.

[3] = cited from earlier work
[4] = 135 mg daily (45 mg tid) up to 14 weeks; cited from earlier work
[5] = 9-month dog toxicology study; assay type: in vivo; settings: 1.5 mg/kg/day
NR2B receptor = biological target: T1, NR2B receptor (Rattus norvegicus, UniProt P35439+Q00960); assay: NR2B occupancy at rat doses, based on ex-vivo occupancy study in rodents
T1 construct: occupancy of the NR2B receptor, based on an ex-vivo occupancy study in rodents; from tissue; host or cells: rodent brain (ex vivo occupancy; brain is implied by the 1:1 brain to plasma ratio)
T1 sequence (Q00960 27-1482, other chains not shown): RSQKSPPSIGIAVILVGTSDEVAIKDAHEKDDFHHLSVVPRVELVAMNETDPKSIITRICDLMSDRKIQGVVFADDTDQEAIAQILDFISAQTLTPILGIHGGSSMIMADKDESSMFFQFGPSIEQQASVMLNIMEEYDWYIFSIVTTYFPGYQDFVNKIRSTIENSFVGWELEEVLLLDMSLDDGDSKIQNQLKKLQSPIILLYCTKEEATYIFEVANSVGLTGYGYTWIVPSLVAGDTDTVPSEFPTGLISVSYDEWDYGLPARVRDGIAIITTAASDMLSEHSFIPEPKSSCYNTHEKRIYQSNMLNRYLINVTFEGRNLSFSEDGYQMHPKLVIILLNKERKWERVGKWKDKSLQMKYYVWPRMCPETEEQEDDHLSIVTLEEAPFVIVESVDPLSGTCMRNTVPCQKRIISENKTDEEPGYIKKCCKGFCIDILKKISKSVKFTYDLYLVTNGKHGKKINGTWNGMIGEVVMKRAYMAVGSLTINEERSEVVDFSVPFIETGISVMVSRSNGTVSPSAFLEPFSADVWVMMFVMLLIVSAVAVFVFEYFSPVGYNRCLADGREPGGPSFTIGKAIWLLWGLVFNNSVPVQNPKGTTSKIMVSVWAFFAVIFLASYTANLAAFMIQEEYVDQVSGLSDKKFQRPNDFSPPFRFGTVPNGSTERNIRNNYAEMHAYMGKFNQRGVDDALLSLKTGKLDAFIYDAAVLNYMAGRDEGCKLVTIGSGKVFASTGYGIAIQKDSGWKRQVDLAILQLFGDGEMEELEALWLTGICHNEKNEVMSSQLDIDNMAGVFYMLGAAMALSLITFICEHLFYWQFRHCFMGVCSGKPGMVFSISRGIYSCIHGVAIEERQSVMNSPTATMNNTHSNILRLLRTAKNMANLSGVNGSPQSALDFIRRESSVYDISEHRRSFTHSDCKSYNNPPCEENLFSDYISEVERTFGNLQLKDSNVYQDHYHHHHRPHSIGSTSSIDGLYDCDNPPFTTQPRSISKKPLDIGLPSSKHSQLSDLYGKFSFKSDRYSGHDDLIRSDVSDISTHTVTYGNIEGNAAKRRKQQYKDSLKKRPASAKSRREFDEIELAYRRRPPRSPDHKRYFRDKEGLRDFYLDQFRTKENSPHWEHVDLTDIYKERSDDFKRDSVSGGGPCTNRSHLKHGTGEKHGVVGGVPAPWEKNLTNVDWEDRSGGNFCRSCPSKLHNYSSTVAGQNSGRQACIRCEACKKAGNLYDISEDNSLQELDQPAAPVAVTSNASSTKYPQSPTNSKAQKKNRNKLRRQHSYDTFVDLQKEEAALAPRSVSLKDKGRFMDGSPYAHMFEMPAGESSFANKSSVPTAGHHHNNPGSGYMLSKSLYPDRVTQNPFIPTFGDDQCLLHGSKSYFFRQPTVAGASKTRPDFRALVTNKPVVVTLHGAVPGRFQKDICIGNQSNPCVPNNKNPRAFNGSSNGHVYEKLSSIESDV
Experimental: (§2) Radiprodil anticonvulsant efficacy was specifically tested in rats at different time points during postnatal development, using pentylenetetrazole (PTZ) as a convulsant, to induce generalized clonic-tonic seizures. The activity of radiprodil in this juvenile PTZ rat model was tested up to 30 mg/kg, showing efficacy at a dose of 1 mg/kg. The calculated free plasma fraction of an orally administered 1 mg/kg dose is expected to give around 60% occupancy of the NR2B receptor, based on an ex-vivo occupancy study in rodents and assuming a 1:1 brain to plasma ratio, see below for further details.

[6] = phase 1B study, seizure cohort: treatment emergent adverse events; assay type: in vivo
Excerpt: The primary objectives of this study are to determine the safety and tolerability of multiple individually titrated doses of radiprodil as an add-on therapy to standard of care (SOC) in pediatric participants; establish a safe and well-tolerated dose; and to determine the pharmacokinetics (PK) and plasma exposure of radiprodil. Endpoints of these primary objectives include: adverse events (AEs), serious adverse events (SAEs), and adverse drug reactions (ADRs) (frequency, type, severity, and duration); changes in vital signs; physical examination findings; 12-lead electrocardiogram (ECG) findings; clinically significant changes in laboratory parameters; emergence of new seizure types; occurrence of suicidal ideation or behavior; determination of the maximum tolerated dose of radiprodil based on safety and tolerability data; and plasma concentrations of radiprodil.
Pyrexia, diarrhoea, and respiratory tract infection were the most common TEAEs. Three patients experienced SAEs, all unrelated to radiprodil treatment. One each of adenovirus infection, bronchiolitis, and viral pneumonia

behavioral symptoms = assay: phase 1B study, behavioral cohort: global impressions of change; assay type: in vivo, human; settings: clinicians and caregivers
Excerpt: as §1
A behavioral cohort of patients from 6 months to 12 years of age with known GoF variants confirmed via method described in Myers, et al., Hum Mol Genetics. […]

[7] = phase 1B study, behavioral cohort: treatment emergent adverse events; assay type: in vivo, human
Excerpt: Pyrexia, diarrhoea, and respiratory tract infection were the most common TEAEs. Three patients experienced SAEs, all unrelated to radiprodil treatment. One each of adenovirus infection, bronchiolitis, and viral pneumonia.

[8] = test system: pentylenetetrazole (PTZ)-induced generalized clonic-tonic seizures; assay: juvenile PTZ rat model; assay type: in vivo
Experimental: as §2

in vivo [9] = settings: dog
[10] = Phase 1 study of normal healthy human subjects, 45 mg Radiprodil (30% Formulation) fed and fasted; assay type: in vivo; settings: for AUC(0-inf) / AUC(0-t) / Cmax: human, in vivo, oral; for AUC(0-inf): read-out: AUCinf Geometric LSM; for AUC(0-t): read-out: AUClast Geometric LSM; for Cmax: read-out: Cmax Geometric LSM
[11] = 2 participants, doses up to 0.2 mg/kg bid
[12] = all unrelated to radiprodil treatment

## O=C(Nc1ccc2[nH]c(=O)oc2c1)C(=O)N1CCC(Cc2ccc(F)cc2)CC1 [Radiprodil]
In vivo [1]
  AUC: 9550 ng·h/mL
  AUC0-24h at NOAEL: 9,555 ng×h/mL
  AUC(0-t): 9560 ng·h/mL
  Cmax: 1400 ng/mL
  Cmax at NOAEL: 1404 ng/mL
  NOAEL at 4 weeks: 100 mg/kg/day
  exposure (total Cmax and AUC) of 0.05 mg/kg bid lower than NOAEL exposure: more than 20 fold
In vivo [1]; 4 weeks
  NOAEL: 100 mg/kg/day
Audiogenic seizures
  anticonvulsant efficacy in audiogenic seizure model: anticonvulsant activity in the same range of doses/exposures
[2]; 8-week maintenance period
  median reduction in CMS: ~86%
  patients seizure-free during 80% of days: 6 of 7
  patients with reduction in CMS of 100%: 14.3%
  patients with reduction in CMS of ≥50%: 71.4%
  patients with reduction in CMS of ≥90%: 42.9%
[2]; seizure cohort
  patients with reductions from baseline in CMS frequency: 6 of 7
[2]; seizure cohort, clinicians and caregivers
  CGI-C and CaGI-C: clinical improvement in most patients
[3]; [11]
  AUC0-4: up to 1036 ng×h/mL
  AUC(0-t): up to 1036 ng×h/mL
  Cmax: up to 208 ng/mL
[3]; 3 infants, treatment for up to 34 days
  safety and tolerability: safe and well tolerated
[4]
  AUC: 9000 ± 2387 ng·h/mL
  AUC0-24h: 6875 ng·h/mL
  Cmax: 487 ± 129 ng/mL and 482 ± 129 ng/mL
[5]; dog, plasma, at 6-months, read-out: average AUC0-24h
  AUC(0-t): 7060 ng·h/mL
[5]; up to 6 months
  seizures or convulsions: no seizures or convulsions were observed
NR2B receptor; 10 mg/kg
  NR2B occupancy: ~90%
NR2B receptor; orally administered 1 mg/kg, calculated free plasma fraction, 1:1 brain to plasma ratio assumed
  occupancy of the NR2B receptor: around 60%
[6]; Seizure Cohort (n = 8)
  Abnormal behavior, %: (12.5) %
  Agitation, %: (12.5) %
  Any TEAE, %: (100) %
  Cough, %: (25.0) %
  Diarrhoea, %: (25.0) %
  Dystonia, %: (25.0) %
  Fatigue, %: (12.5) %
  Gastroenteritis, %: (25.0) %
  Pyrexia, %: (50.0) %
  Respiratory tract infection, %: (25.0) %
[6]; [12]
  patients with SAEs: Three
[6]; seizure cohort
  tolerability: generally well-tolerated
Behavioral symptoms
  CGI-C and CaGI-C: clinical improvement in most patients
[7]; Behavioral Cohort (n = 7)
  Abnormal behavior, %: 28.6%
  Agitation, %: 28.6%
  Any TEAE, %: 85.7%
  Cough, %: 14.3%
  Diarrhea, %: 28.6%
  Dystonia, %: 14.3%
  Fatigue, %: 28.6%
  Gastroenteritis, %: 14.3%
  Pyrexia, %: 14.3%
  Respiratory tract infection, %: 28.6%
[7]; [12]
  patients with SAEs: Three
[7]; behavioral cohort
  tolerability: generally well-tolerated
[8]; 10 mg/kg, postnatal day 12 and postnatal day 18 rats
  tonic phases of PTZ-induced convulsions: completely blocked
[8]; tested up to 30 mg/kg
  dose showing efficacy in juvenile PTZ rat model: 1 mg/kg
In vivo [9]
  NOAEL at 13 weeks: 1.5 mg/kg/day
In vivo [9]; 1.5 mg/kg/day
  AUC(0-t): 3750 ng·h/mL
  Cmax: 722 ng/mL
[10]
  AUCinf Geometric LSM Ratio (Fed/Fasted): 148.4%
  AUClast Geometric LSM Ratio (Fed/Fasted): 155.8%
  Cmax Geometric LSM Ratio (Fed/Fasted): 259.6%
[10]; Fasted
  AUC(0-inf): 1890 ng·h/mL
  AUC(0-t): 1780 ng·h/mL
  Cmax: 81.3 ng/mL
[10]; Fed
  AUC(0-inf): 2810 ng·h/mL
  AUC(0-t): 2770 ng·h/mL
  Cmax: 211 ng/mL
